Tests used:
[1] = acute toxicity (delayed toxicity in mice after 20 days), i.p. in rape oil; type: in vivo; conditions: mouse, ip
Excerpt: (§1) The toxicity of the polyene compound of formula I is slight.

mice = experiment: as above; type: in vivo
Excerpt: as §1

Structure (SMILES): COC(C)C1=C(C=CC(C)=CC=CC(C)=CC(=O)O)C(C)(C)CC1 (centres unmarked) [9-[2-(1-methoxyethyl)-5,5-dimethyl-cyclopent-1-en-1-y1]-3,7-dimethyl-nona-2,4,6,8-tetraen-1-acid]
- LD50 at 24 h ([1]; after 1 day): > 4000 mg/kg
- LD50 at 240 h ([1]; after 10 days): 350 mg/kg
- LD10 (mice; after 1 day): > 4000 mg/kg
- LD90 (mice; after 1 day): > 4000 mg/kg
- LD10 (mice; after 10 days): 290 mg/kg
- LD90 (mice; after 10 days): 430 mg/kg
- LD10 (mice; after 20 days): 290 mg/kg
- LD90 (mice; after 20 days): 430 mg/kg

From patent US4044051A, “9[2-(1-Al koxy-ethyl)-5,5-dimethyl-cyclopent-1-en-1-yl]-3,7-dimethyl-nona-2,4,6,8-t etraen acid compounds” (Hoffmann-La Roche Inc., priority 1971, dated 1977)
